In ChEMBL document CHEMBL1201862, “PubChem BioAssay data set” (2004):
Active and inactive are the calls of the source.

Experiments:
[1] = HepG2 cell cytotoxicity, dose response, cytotoxicity control for Shn3 inhibitor project, CellTiter-Glo, cherry-picked (AID 624134); type: functional, cell-based
[2] = inhibitors of intracellular T. cruzi replication, confirmation, NIH3T3 host cells, beta-gal luminescence (AID 2044); type: functional, cell-based;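 note: intracellular parasites grown in NIH/3T3 mouse fibroblasts as host cells; luminescent beta-galactosidase reporter signal from transgenic T. cruzi replicating inside host cells; inhibitors lower the luminescence signal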
[3] = Luminescence Cell-Based Dose Response HTS to Identify Inhibitors of 5'UTR Stem-Loop Driven Prion Protein mRNA Translation in H4 Neuroglioblastoma Cells. [Related pubchem assays: 1827 (Project Summary), 1813 (Primary HTS)]; type: functional
[4] = inhibitors of firefly luciferase expression or activity, dose response, H4 neuroglioma cells, luminescence (AID 1990); type: functional, cell-based
INS1 = assay: beta cell apoptosis inhibitors, cytokine rescue, dose response, luminescence, retest (AID 449756); type: functional, cell-based; conditions: Rattus norvegicus;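 note: cell death triggered by IL-1 beta plus TNF-alpha plus IFN-gamma mixture; protective hits raise ATP signal compared with cytokine alone wells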
[5] = cytotoxicity toward NIH3T3 fibroblasts, dose response, counter-screen, cell-based, ATP luminescence, mouse fibroblasts (AID 2010); type: functional;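 note: cells exposed to compound for about 90 hours before reading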
[6] = Shn3 3'UTR reporter inhibitors, dose response, cell-based, Clone20 osteoblasts, firefly luciferase, cherry-picked (AID 624132); type: functional;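 note: firefly luciferase luminescence from reporter carrying the Shn3 3'UTR in osteoblasts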
[7] = inhibitors of SNCA 5'UTR-driven reporter translation, confirmation, H4 neuroglioma cells, luminescence (AID 1988); type: functional, cell-based
[8] = control 3'UTR Renilla luciferase suppression, dose response, counter-screen for Shn3 inhibitor project, cell-based, Clone20-Shn3RL, cherry-picked (AID 624133); type: functional
[9] = molecular target: T1, Calpain-2 catalytic subunit (Sus scrofa, UniProt P43367); assay: pig calpain II inhibitor potency, dose response, biochemical, fluorogenic peptide substrate (AID 1420); type: functional
T1 sequence (P43367 whole entry): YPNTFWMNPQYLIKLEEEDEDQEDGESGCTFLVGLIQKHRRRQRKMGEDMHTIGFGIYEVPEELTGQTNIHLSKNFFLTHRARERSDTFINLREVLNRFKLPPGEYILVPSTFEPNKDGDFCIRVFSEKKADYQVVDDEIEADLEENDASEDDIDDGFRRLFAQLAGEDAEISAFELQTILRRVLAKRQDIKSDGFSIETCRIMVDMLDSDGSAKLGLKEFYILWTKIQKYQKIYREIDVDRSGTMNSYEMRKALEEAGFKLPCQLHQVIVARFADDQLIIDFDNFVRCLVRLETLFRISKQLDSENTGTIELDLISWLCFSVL

Protein RecA = molecular target: T2, Protein RecA (Mycobacterium tuberculosis, UniProt P9WHJ3); assay: Fluorescence Cell-Free Homogeneous Dose Retest to Identify Inhibitors of RecA-Intein Splicing Activity. [Related pubchem assays (depositor defined):AID2097, AID2223, AID489010, AID492950]; type: functional
T2 sequence (P9WHJ3 whole entry): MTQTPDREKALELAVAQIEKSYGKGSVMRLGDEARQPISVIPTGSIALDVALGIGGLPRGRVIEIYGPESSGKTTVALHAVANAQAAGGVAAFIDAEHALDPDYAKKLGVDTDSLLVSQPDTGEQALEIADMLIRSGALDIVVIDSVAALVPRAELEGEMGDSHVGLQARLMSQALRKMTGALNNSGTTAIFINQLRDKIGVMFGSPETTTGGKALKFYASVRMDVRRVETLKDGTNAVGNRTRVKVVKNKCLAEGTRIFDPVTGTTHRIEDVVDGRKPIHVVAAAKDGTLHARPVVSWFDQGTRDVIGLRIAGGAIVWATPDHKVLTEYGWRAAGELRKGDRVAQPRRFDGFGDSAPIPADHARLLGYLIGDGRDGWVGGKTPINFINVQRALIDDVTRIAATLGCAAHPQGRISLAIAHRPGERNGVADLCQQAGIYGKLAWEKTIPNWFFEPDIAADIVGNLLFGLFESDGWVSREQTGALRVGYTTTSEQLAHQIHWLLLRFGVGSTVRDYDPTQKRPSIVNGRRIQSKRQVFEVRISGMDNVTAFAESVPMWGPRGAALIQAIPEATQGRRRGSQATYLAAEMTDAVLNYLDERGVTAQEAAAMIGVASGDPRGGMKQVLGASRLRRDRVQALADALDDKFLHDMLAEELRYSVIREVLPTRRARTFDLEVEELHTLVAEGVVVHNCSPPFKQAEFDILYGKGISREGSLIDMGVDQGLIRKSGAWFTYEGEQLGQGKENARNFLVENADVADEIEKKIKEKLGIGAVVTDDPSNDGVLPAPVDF

[10] = molecular target: T3, Replicative DNA helicase DnaB (Mycobacterium tuberculosis, UniProt P9WMR3); assay: DnaB intein splicing inhibitors, dose response, biochemical, cell-free fluorescence (AID 449749); type: functional
T3 sequence (P9WMR3 whole entry): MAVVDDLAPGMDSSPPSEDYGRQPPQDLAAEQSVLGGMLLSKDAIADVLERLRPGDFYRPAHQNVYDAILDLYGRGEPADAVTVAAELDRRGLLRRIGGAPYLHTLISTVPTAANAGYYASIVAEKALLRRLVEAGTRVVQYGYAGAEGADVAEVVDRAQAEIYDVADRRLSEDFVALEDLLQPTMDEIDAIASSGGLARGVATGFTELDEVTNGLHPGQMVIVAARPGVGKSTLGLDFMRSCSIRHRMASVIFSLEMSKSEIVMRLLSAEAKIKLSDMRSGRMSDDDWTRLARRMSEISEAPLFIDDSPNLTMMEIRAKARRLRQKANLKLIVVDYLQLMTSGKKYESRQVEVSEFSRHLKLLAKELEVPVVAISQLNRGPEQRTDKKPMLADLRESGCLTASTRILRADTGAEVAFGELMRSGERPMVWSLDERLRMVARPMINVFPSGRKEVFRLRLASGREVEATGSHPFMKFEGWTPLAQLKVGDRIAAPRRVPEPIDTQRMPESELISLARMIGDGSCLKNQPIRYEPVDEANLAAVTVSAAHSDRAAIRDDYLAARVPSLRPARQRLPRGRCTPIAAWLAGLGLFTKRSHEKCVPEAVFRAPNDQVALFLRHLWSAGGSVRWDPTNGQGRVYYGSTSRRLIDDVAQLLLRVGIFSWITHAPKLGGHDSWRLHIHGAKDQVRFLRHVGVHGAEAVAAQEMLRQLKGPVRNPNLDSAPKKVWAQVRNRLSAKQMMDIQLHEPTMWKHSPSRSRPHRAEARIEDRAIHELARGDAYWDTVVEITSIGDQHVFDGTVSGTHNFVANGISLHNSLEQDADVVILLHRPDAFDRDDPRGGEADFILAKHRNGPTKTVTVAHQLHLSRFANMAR

[11] = molecular target: Glyceraldehyde-3-phosphate dehydrogenase (Homo sapiens, UniProt P04406)
Sequence of Glyceraldehyde-3-phosphate dehydrogenase (P04406 whole entry): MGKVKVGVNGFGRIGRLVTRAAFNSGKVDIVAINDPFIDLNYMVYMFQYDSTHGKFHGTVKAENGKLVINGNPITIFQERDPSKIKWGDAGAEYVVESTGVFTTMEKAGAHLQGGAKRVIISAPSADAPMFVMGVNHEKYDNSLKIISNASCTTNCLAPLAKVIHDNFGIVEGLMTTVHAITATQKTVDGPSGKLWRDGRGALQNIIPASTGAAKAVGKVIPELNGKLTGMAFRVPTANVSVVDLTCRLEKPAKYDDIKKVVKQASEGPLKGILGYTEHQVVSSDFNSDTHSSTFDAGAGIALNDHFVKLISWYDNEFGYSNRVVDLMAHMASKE

[12] = A cytotoxicity screen of small molecule inhibitors of the PhoP region in Salmonella typhi identified in the primary screen. [Related pubchem assays: 1850, 1864, 1985 ]; type: functional
[13] = P. falciparum 3D7-ScDHODH growth inhibitors, dose response, SYBR Green, dry powder samples (AID 1159570); type: functional, cell-based;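 note: parasite growth measured after 72 hours of compound exposure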
[14] = P. falciparum ATP4 D1247Y mutant growth inhibitors, dose response, NITD609-resistant line, SYBR Green, dry powder (AID 1159571); type: functional, cell-based;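 note: parasites synchronized at ring stage by sorbitol before testing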
[15] = P. falciparum Dd2 growth inhibitors, dose response, SYBR Green, cherry-picked samples (AID 1159567); type: functional, cell-based
[16] = P. falciparum Dd2 growth inhibitors, dose response, SYBR Green, dry powder samples (AID 1159566); type: functional, cell-based;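 note: potency for growth inhibition with lower SYBR green DNA signal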
[17] = molecular target: Induced myeloid leukemia cell differentiation protein Mcl-1 (Homo sapiens, UniProt Q07820); type: functional
Sequence of Induced myeloid leukemia cell differentiation protein Mcl-1 (Q07820 whole entry): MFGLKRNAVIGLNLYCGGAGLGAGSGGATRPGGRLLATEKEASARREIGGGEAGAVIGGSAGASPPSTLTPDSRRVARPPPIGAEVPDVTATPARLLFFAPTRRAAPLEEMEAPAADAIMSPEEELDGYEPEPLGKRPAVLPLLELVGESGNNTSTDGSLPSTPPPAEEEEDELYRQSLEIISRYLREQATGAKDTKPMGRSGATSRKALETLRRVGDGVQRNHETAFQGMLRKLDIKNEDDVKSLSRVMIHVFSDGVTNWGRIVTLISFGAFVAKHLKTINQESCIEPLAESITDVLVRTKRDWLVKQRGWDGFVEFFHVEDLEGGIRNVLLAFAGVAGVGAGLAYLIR

[18] = molecular target: T4, Short transient receptor potential channel 4 (Mus musculus, UniProt Q9QUQ5); assay: mouse TRPC4 channel activators, dose response, cell-based, HEK293 TRPC4/mu-opioid, Fluo-4 calcium (AID 434937); type: functional
T4 sequence (Q9QUQ5 whole entry): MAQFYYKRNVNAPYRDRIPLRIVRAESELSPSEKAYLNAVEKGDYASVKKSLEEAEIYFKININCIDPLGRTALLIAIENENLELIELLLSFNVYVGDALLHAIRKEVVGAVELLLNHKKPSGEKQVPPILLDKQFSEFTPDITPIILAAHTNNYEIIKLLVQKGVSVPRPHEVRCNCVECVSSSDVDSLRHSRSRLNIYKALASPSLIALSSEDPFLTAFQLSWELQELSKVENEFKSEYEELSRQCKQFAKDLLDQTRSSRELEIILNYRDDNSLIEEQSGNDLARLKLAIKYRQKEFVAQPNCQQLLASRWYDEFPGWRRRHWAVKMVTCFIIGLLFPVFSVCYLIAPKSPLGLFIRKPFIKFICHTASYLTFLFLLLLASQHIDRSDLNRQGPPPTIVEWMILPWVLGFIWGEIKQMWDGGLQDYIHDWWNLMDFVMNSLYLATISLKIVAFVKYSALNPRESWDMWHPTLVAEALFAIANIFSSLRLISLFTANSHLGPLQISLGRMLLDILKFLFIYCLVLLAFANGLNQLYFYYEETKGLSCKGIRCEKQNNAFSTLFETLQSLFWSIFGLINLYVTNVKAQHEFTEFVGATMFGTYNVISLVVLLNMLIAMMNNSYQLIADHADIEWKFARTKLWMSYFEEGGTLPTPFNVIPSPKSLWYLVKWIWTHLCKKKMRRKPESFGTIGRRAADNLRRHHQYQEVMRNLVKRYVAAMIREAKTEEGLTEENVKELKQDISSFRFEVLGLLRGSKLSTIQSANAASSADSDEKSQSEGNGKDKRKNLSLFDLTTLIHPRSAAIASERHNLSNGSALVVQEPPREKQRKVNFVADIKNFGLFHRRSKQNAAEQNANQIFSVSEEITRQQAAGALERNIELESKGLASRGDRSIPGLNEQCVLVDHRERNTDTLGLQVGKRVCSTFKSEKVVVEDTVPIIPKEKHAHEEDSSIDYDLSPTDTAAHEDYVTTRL

SMILES: COc1ccc(CNCCc2c(C)[nH]c3ccc(OC(F)(F)F)cc23)c(OC)c1
- AC50 [1]: 9.13 µM (active)
- EC50 [2]: 0.703 µM (active)
- EC50 [3]: > 120 µM (not active)
- EC50 [4]: 17.7 µM (active)
- AC50 (INS1): 4.68 µM (active)
- EC50 [5]: > 60 µM (not active)
- AC50 [6]: 0.963 µM (active)
- EC50 [7]: > 120 µM (not active)
- AC50 [8]: 8.45 µM (active)

SMILES: FC(F)(F)C1CC(c2cccs2)Nc2ncnn21 (centres undefined)
- IC50 [9]: 0.904 µM (not active)

SMILES: CC1CCc2c(sc3c2C2=NS(=O)(=O)CCN2C=N3)C1 (centres undefined)
- IC50 [9]: 9.53 µM (not active)

SMILES: CCCc1n[nH]c2c1C(c1ccccc1OC)C(C#N)=C(N)O2 (centres undefined)
- EC50 (Protein RecA): 2.07 µM (active)
- AC50 [10]: 15.9 µM (active)

SMILES: O=C1C(Cl)=C(N2CCN(CCO)CC2)C(=O)N1c1ccc(Cl)nc1
- IC50 [11]: > 50 µM (inconclusive)

SMILES: Nc1nc2ccccc2cc1-c1cccs1
- EC50 [12]: > 50 µM (active)

SMILES: CCOC(=O)C1(CC2CCCCO2)CCN(C(=O)Nc2ccc(C)c(C)c2)CC1 (centres undefined)
- IC50 [9]: > 50 µM (not active)

SMILES: COc1ccccc1CNc1nc(NCc2ccc(C(C)C)cc2)c2sccc2n1
- AC50 [1]: 39.4 µM (active)
- AC50 [6]: 6.81 µM (active)
- AC50 [8]: 10.5 µM (active)

SMILES: COc1ccc(C#Cc2cnc3c(c2)C(=O)N([C@H](C)CO)C[C@H](C)[C@H](CN(C)S(=O)(=O)c2cccc(F)c2)O3)cc1OC
- AC50 [13]: 1.8 µM (active)
- AC50 [14]: 1.17 µM (active)
- AC50 [15]: 1.38 µM (active)
- AC50 [16]: 0.774 µM (active)

SMILES: CCCCN(CC)CC/N=c1/c(N2CCN(C(=O)OCC)CC2)c(O)c1=O
- IC50 [17]: 0.433 µM (active)
- EC50 [18]: 1.68 µM (active)

SMILES: CC(C)(C)[S@+]([O-])N1Cc2cc(C(=O)N[C@@H]3CCN(Cc4ccccc4)C3)nc(-c3cccc(-c4cccnc4)c3)c2[C@@H]1CCO
- AC50 [13]: 2.62 µM (active)
- AC50 [14]: 1.98 µM (active)
- AC50 [15]: 1.93 µM (active)
- AC50 [16]: 1.99 µM (active)
